Measurements as given in US20250057913A1, “USE OF SOMATOSTATIN AGONIST IN THE TREATMENT OF SSTR3 EXPRESSING TUMORS” (ITALFARMACO SPA, priority 2021, published 2025).

Columns and labels:
SSTR3-tGFP = SSTR3-tGFP (Homo sapiens, UniProt P32745); assay: Internalization of SSTR3 in U2OS transfected cells; format: cell-based; design: expressed in transfected cells; host or cells: U2OS
Source text: HEK293 cells transfected with human SSTRs, and U20S cells transfected with human GFP-tagged receptors (SSTR2-tGFP, SSTR3-tGFP, SSTR5-tGFP).

IGF1 levels = IGF1 levels in rats; format: in vivo, rat
SSTR5 = SSTR5 (Homo sapiens, UniProt P35346); assay: SSTR5 phosphorylation in HEK293 transfected cells (anti-pT333); format: cell-based; design: expressed in transfected cells; conditions: 10 min at 37° C.
Source text: FIG. 9—Agonist-selective SSTR5 phosphorylation in HEK293 transfected cells. (A) Schematic representation of the human SSTR5 receptor indicating all potential phosphate acceptor site within the carboxyl-terminal tail. Epitope of the phosphosite-specific antibodies are marked (-P) . . . […] (C) Blots were subsequently stripped and reprobed with anti-HA antibody to confirm equal loading of the gels. Blots shown are representative of three independent experiments. The positions of molecular mass markers are indicated on the left (in kDa).
(§1) Finally, the SSTR5 pT333 phosphosite was only partially affected by all tested compounds, with Pasireotide showing the most pronounced effect (FIG. 9B, C).

SSTR2 = SSTR2 (Homo sapiens, UniProt P30874); assay: SSTR2 phosphorylation in HEK293 transfected cells (phosphosite-specific antibodies); format: cell-based; design: expressed in transfected cells; conditions: 10 or 1 μM, 10 min at 37° C.
Experimental: (A) Schematic representation of the human SSTR2 receptor indicating all potential phosphate acceptor sites within the carboxyl-terminal tail. Epitopes of the phosphosite-specific antibodies are marked (-P). […] The levels of phosphorylated SSTR2 receptor were then determined using the phosphosite-specific anti-pS341/pS343, pT353/T354, pT356/T359 antibodies. […] Blots shown are representative of three independent experiments. The positions of molecular mass markers are indicated on the left (in kDa).

SSTR3 = SSTR3 (Homo sapiens, UniProt P32745); assay: SSTR3 phosphorylation in HEK293 transfected cells (phosphosite-specific antibodies); format: cell-based; design: expressed in transfected cells; conditions: 10^−12 to 10^−5 M, 10 min at 37° C.
Experimental: The levels of phosphorylated SST3 receptor were then determined using the phosphosite-specific anti-pS337/pT341 or anti-pT348.
as §1

Sequence of SSTR3-tGFP (P32745 whole entry): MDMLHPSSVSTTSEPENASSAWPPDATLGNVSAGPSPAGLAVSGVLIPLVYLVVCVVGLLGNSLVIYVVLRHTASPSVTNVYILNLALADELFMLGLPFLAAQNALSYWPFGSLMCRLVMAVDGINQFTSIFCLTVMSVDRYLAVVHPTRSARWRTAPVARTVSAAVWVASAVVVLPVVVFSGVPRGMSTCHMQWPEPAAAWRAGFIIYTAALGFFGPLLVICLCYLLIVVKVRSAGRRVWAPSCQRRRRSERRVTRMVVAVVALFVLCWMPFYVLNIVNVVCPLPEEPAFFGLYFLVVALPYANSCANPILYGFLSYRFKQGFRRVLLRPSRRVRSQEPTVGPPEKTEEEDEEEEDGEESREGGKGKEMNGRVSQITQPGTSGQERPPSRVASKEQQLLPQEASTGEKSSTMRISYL
Sequence of SSTR2 (P30874 whole entry): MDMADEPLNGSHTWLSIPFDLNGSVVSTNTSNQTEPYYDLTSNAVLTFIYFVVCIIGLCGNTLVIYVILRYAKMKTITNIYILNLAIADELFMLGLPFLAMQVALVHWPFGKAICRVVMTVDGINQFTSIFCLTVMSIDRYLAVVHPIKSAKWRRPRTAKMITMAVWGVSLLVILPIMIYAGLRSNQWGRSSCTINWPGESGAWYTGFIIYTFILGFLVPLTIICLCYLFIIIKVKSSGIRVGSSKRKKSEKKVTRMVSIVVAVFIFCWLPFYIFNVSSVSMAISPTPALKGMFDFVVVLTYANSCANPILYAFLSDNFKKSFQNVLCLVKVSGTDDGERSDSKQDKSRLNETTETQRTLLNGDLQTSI
Sequence of SSTR3 (P32745 whole entry): as the sequence (P32745 whole entry) above
Sequence of SSTR5 (P35346 whole entry): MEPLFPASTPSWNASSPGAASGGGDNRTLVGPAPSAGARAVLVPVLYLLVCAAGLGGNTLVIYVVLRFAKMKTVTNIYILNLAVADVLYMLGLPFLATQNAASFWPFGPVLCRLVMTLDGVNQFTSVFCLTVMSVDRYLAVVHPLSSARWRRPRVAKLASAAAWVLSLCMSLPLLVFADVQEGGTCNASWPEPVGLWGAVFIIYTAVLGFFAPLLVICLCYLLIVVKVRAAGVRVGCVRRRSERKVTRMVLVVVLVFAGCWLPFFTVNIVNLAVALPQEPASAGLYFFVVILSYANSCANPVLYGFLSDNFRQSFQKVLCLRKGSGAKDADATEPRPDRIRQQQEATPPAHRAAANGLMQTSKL

## COc1cc2cccc(OC)c2cc1C[C@H]1NC(=O)[C@H](Cc2ccc(O)cc2)NC(=O)[C@@H]2C[C@@H](OC(=O)NCCN)CN2C(=O)[C@H](Cc2ccccc2)NC(=O)[C@H](Cc2ccc(OCc3ccccc3)cc2)NC(=O)[C@H](CCCCN)NC1=O [ITF2984, (3S,6R,9S,12S,15S,19R,20aS)-9-(4-aminobutyl)-15-benzyl-12-(4-(benzyloxy)benzyl)-6-((3,8-dimethoxynaphthalen-2-yl)methyl)-3-(4-hydroxybenzyl)-1,4,7,10,13,16-hexaoxoicosahydropyrrolo[1,2-a][1,4,7,10,13,16]hexaazacyclooctadecin-19-yl (2-aminoethyl)carbamate]
SSTR3-tGFP; 1 μM
  Mean of internalized fluorescence, SSTR3: 61.1 AU
  rank as SSTR3-tGFP internalization inducer: most potent inducer of receptor internalization
SSTR3-tGFP; 10 μM
  Mean of internalized fluorescence, SSTR3: 62.5 AU
IGF1 levels
  IGF1 levels: decreased IGF1 levels
SSTR5
  phosphorylation of SSTR5 (pT333): partial phosphorylation
SSTR2
  phosphorylation of SSTR2 (pS341/pS343, pT353/T354, pT356/T359): selective phosphorylation of S341/S343
SSTR3
  phosphorylation of SSTR3 (pS337/pT341, pT348): full phosphorylation
